From PubChem BioAssay (NCI)
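Grown in 96-well plates, cells were treated for 48 hours with each compound at five concentrations. Insufficient inhibition: endpoint recorded as highest concentration tested. Here, GI50 denotes the concentration required for 50% inhibition of growth. TGI denotes the concentration required for complete inhibition of growth.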 *1 amine or outer side, *2 acyl side, *3 side chain or, on linkers, in order; H or OH if unused. Where a SMILES comes first, the peptide text is derived from it. [ ]: non-standard residue; d: D form. X32 = C[C@H](N[*:1])C(=O)C(C)(C)C(=O)[*:2]; Hmpa(2S,3S) = CC[C@H](C)[C@H](O)C(=O)O; NMeY = CN[C@@H](Cc1ccc(O)cc1)C(=O)O; NMeL = CN[C@@H](CC(C)C)C(=O)O; NMeV = CN[C@H](C(=O)O)C(C)C; βAla = NCCC(=O)O

What was measured:
Assay in all cases: NCI-60 cell line screen, 48 h
UACC-257 melanoma = system: UACC-257 melanoma
TK-10 renal = system: TK-10 renal
UACC-62 melanoma = system: UACC-62 melanoma
OVCAR-3 ovarian = system: OVCAR-3 ovarian
MOLT-4 leukemia = system: MOLT-4 leukemia
MDA-MB-435 = system: MDA-MB-435
SN12C renal = system: SN12C renal
OVCAR-8 ovarian = system: OVCAR-8 ovarian
M14 melanoma = system: M14 melanoma
OVCAR-5 ovarian = system: OVCAR-5 ovarian

Compound	TGI (UACC-257 melanoma) [µM]	TGI (TK-10 renal) [µM]	TGI (UACC-62 melanoma) [µM]	TGI (OVCAR-3 ovarian) [µM]	TGI (MOLT-4 leukemia) [µM]	TGI (MDA-MB-435) [µM]	TGI (SN12C renal) [µM]	TGI (OVCAR-8 ovarian) [µM]	TGI (M14 melanoma) [µM]	TGI (OVCAR-5 ovarian) [µM]	GI50 (OVCAR-5 ovarian) [µM]
CCOC(=O)C(SCCO)C(C(=O)OCC)n1ccc(=O)[nH]c1=O (stereo unspecified)	> 100	> 100	67.3	72.7	21.7	> 58.5	> 100	> 57.4	> 90.5	47.6	
O=C(NNC(=S)NC1CCCCC1)c1csc(NC(=S)NC2CCCCC2)n1	11.8	> 100	22.6	16.9	25.5	26.6	25.9	15	16.1	40.1	
CC(=O)OCc1ccc2oc(=O)c(C(=O)Oc3ccccc3)cc2c1	> 100	62.8	38.6	> 100	> 100	> 100	99.2	> 100	> 100	> 100	
Cc1ccc(S(=O)(=O)NNCNC(=O)c2ccccc2)cc1	> 100	> 100	> 100	> 100	> 100	> 100	> 100	> 100	> 100	> 100	
O=C(O)CN1C(=O)C(Cc2ccc(O)cc2)N=C(c2cccc(O)c2)c2ccccc21 (stereo unspecified)	> 100	> 100	> 100	> 100	> 100	> 100	34.8	> 100	> 100	> 100	
Cc1cc(=O)oc2c(CNC(Cc3ccccc3)C(=O)O)c(O)ccc12 (stereo unspecified)	> 100	> 100	> 100	> 100	> 100	> 100	> 100	> 100	> 100	> 100	
CC(C)(C)OC(=O)N1C(c2cccnc2)=CC[C@H]2C3CC=C(c4cccnc4)[C@@]3(C)CC[C@@H]21 (stereo partly specified)	10.6	19.7	8.31	14.2	> 100	5.7	13	25	17.7	28.6	
N[C@H]1CCCC[C@@H]1N1C(=O)c2ccccc2C1(O)c1ccc(Cl)cc1 (stereo partly specified)	11.7	26	25.9	21.5	19.2	21.1	27	32.4	23.6	28.6	
O=C1C(c2c(O)[nH]c3ccc(Br)cc23)=Nc2ccccc21	57.3	27.8	28	45.8	> 100	40.1	> 100	21.7	32.4	26	
CC1=C(C(=O)Nc2ccccc2)C2(CCCCC2)C(C#N)=C(SCC(=O)Nc2ccc(Br)cc2)N1	> 43.4	> 45.4	> 87.3	15	9	29.6	16.6	34.9	10.9	14.6	
NC(=S)N/N=C\c1nccc2ccccc12	> 58.6	39.8	0.538	> 100	0.827	> 100	0.779	0.925	2.42	> 100	0.469
O=C(NCCCCCCNC(=O)c1cc(-c2ccccc2)nc2ccccc12)c1cc(-c2ccccc2)nc2ccccc12	> 100	> 100	> 100	> 100	> 100	> 100	> 100	> 100	> 100	> 100	
C=C(Br)CNC(=O)CCC(=O)NCC(=C)Br	> 100	> 100	> 100	> 100	> 100	> 100	> 100	> 100	> 100	> 100	
Cc1ccc(NC(=O)c2cc(S(=O)(=O)Nc3nc4ncccc4[nH]3)c(SSc3cc(Cl)c(C(=O)Nc4ccc(C)cc4)cc3S(=O)(=O)Nc3nc4ncccc4[nH]3)cc2Cl)cc1	> 100	> 100	> 100	> 100	> 100	> 100	> 100	> 100	> 100	> 100	
C=C1C2C[C@@H]3O[C@H]4C[C@H]5O[C@@]6(C[C@@H]7O[C@]8(C[C@H](C)[C@@H]9O[C@@H]%10CC(CO)O[C@@H]%10C[C@@H]9O8)C[C@H](C)[C@@H]7O6)C[C@H]5O[C@H]4[C@H](C)[C@H]3OC(=O)C[C@H]3CC[C@@H]4OC5[C@H]6O[C@]7(CC[C@H]8CC(=C)[C@H](CC[C@@H](C[C@H]1C)O2)O8)CC6O[C@@H]5[C@@H](O7)[C@H]4O3 (stereo partly specified)	> 1	> 1	> 1	> 1	> 1	< 0.0001	> 1	0.00513	> 1	> 1	
CC(=O)Nc1ccc(C2SCc3nc4ccccc4n32)cc1 (stereo unspecified)	> 100	> 100	> 100	> 100	> 100	> 100	> 100	> 100	> 100	> 100	
Cc1ccccc1S(=O)(=O)Nn1cnc2ccc(S(=O)(=O)Nc3ccc(Cl)cc3)cc2c1=O	> 100	> 100	> 100	> 100	> 100	> 100	> 100	> 100	> 100	> 100	
CC(=O)O[C@H]1[C@H](OC(=O)CC(C)(O)CC(=O)O)C[C@]2(C)C3=C(CCC2C1(C)C)[C@]1(C)CC[C@H]([C@H]2CC[C@H](C(C)(C)O)OC2O)[C@@]1(C)[C@@H](O)C3 (stereo partly specified)	35.4	63.4	37	30.4	40.9	35.1	32.1	35.4	33.4	31.7	
CC[C@H](C)[C@@H]1OC(=O)CCNC(=O)[C@@H](C)NC(=O)C(C)(C)C(=O)[C@H](C)NC(=O)[C@H](Cc2ccc(OC)cc2)N(C)C(=O)[C@H](C(C)C)N(C)C(=O)CNC(=O)[C@H](CC(C)C)N(C)C(=O)CNC1=O (cyclo(G[NMeL]G[NMeV][NMeY](Me)[X32][dA][βAla][Hmpa(2S,3S)]))	> 25.9	8	> 50	14.3	> 26.9	> 42.7	> 50	23.7	10.2	> 31.2	
